# Values quoted from earlier work as cited in article PMC9065038 (Scientific Reports, 2022).
# How the values were obtained:
# [1] = constipation, respiratory depression
# [2] = design: method as in PMID 28635181; settings: rats
# [3] = in vivo
# [4] = in vivo; remark: listed apart in the source
# [5] = target: NOP receptor (S346, S351, T362/S363) (Homo sapiens, UniProt P41146)
# Chain of NOP receptor (S346, S351, T362/S363) (P41146 whole entry): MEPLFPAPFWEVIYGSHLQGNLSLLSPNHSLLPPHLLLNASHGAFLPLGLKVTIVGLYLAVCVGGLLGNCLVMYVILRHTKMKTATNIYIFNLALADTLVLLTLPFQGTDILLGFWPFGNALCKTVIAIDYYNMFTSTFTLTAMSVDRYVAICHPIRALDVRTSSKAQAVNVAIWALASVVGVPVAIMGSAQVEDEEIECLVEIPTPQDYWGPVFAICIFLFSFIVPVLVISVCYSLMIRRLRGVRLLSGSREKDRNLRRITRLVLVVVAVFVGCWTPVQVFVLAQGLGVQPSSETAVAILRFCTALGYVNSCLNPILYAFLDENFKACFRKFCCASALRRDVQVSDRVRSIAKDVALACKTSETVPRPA
compound,measurement,setting,value
COc1ccsc1CNCC[C@@]1(c2ccccn2)CCOC2(CCCC2)C1 [TRV130],side-effects in clinical trials,[1],failed to produce therapeutic results devoid of side-effects
CCC1C(=O)N(C2CCN(CCC(c3ccccc3)c3ccccc3)CC2)c2ccccc21 (stereo not drawn) [AT-034],cocaine self-administration,[2],significantly reduce cocaine self-administration
CC(C)[C@H]1CC[C@@H](N2CCC3(CC2)C(=O)N(CCNS(N)(=O)=O)Cc2ccccc23)CC1 [AT-121],reinforcing effects or physical dependence,[3],devoid of reinforcing effects or physical dependence
same,tolerance development,[3],significantly lower tolerance development
same,anti-nociceptive and anti-hyperalgesic effects,[4],potent anti-nociceptive and anti-hyperalgesic effects
buprenorphine,NOP phosphorylation profile (in words),[5],none at NOP
